Here are results for two compounds from US6191290A, “Taxane derivatives for targeted therapy of cancer” (UAB Research Foundation, priority 2000, dated 2001).

Structures are written as SMILES.

Data set [1] can be described thus: Solubility in aqueous and organic solvents. The data set is classed as physicochemical. As to conditions: unconjugated peptide. The text has this:
Prior to the biological evaluation of this compound, two key issues needed to be addressed: The overall water solubility and the cell surface receptor binding ability of the conjugate.

Data set [2] has as its system Burkitts lymphoma xenografts. As to conditions: nude mice bearing Burkitts lymphoma xenografts; cited from earlier work.
For data set [3], the system named is G18 human astrocytoma cells. The conditions noted are these: cited from earlier work.
For data set [4], the system named is NCI-H1299 cells. Put plainly: Cytotoxicity assay at day 4 against NCI-H1299 cells, conjugate versus underivatized paclitaxel. The procedure: To evaluate the cytotoxic effects of the paclitaxel conjugate, experiments were designed to compare these effects with the underivatized, unconjugated paclitaxel.
To evaluate the cytotoxic activity of the conjugate relative to the intact, underivatized paclitaxel on the NCI-H1299 cells, 25 nM and 50 nM samples of paclitaxel and 10 nM and 30 nM solutions of the conjugate were incubated with the cells and the survival was assessed on day 4.

The conditions of data set [5]: clinical trials; cited from earlier work.
The mark [6] stands for this setting: Homo sapiens, NCI-H1299, 96 h, read-out: cytotoxicity (cell destruction).
Setting [7] is: Homo sapiens, NCI-H1299, 96 h, read-out: growth inhibition / cell destruction.

Turning to `CC(C)C[C@H](NC(=O)[C@H](Cc1cnc[nH]1)NC(=O)CNC(=O)[C@@H](NC(=O)[C@H](C)NC(=O)[C@H](Cc1c[nH]c2ccccc12)NC(=O)[C@@H](N)CCC(N)=O)C(C)C)C(N)=O` [BBN[7-13]], the “solubility” value in data set [1] was “soluble only in DMF and alcohols”.

For the compound `CC(=O)O[C@H]1C(=O)[C@@]2(C)[C@H]([C@H](OC(=O)c3ccccc3)[C@]3(O)C[C@H](OC(=O)[C@H](O)[C@@H](NC(=O)c4ccccc4)c4ccccc4)C(C)=C1C3(C)C)[C@]1(OC(C)=O)CO[C@@H]1C[C@@H]2O` [paclitaxel], the “radiosensitizing effect” value in data set [2] is “radiosensitizing effect”. Also, the “radiosensitizing effect” value in data set [3] is listed as “radiosensitizing effect”. Moreover, in data set [4] (setting [6]), the cytotoxicity at 0.01 µM is 0% and the cytotoxicity at 0.025 µM was 20%. In data set [4] (setting [7]), the inhibition at 0.025 µM came to 23% and the inhibition at 0.05 µM is 51%. Also, the “cytotoxicity (cell destruction)” value in data set [4] (human, nci-h1299 cells, 96 h, 0.01 µM) is on record as 0%. Also, the “reported side effects” value in data set [5] is “neutropenia, mucositis, cardiac and neurological toxicities in addition to hypersensitivity”.
